# Reference: US20160287589A1, “SUBSTITUTED-IMIDAZOPYRIDAZINES” (BAYER PHARMA AKTIENGESELLSCHAFT, priority 2013, published 2016)
# Columns and labels:
# MKNK1 [1] = biological target: T1, MKNK1 (Homo sapiens, UniProt Q9BUB5, T385D); assay: MKNK1 kinase assay (MKNK1 TR-FRET assay); assay type: biochemical; details: Table 1d; 10 μM ATP, 15 min preincubation
# T1 construct: GST (N); purchased Carna Biosciences 02-145; host or cells: insect cells (baculovirus expression system)
# MKNK1 [2] = biological target: T1, MKNK1; assay: MKNK1 kinase high ATP assay (TR-FRET-based); assay type: biochemical; details: Table 2d; 2 mM ATP, 15 min preincubation
# Method in brief: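 TR-FRET read-out (anti-phospho-S6 Ser236 antibody, Eu/XL665) of biotin-peptide phosphorylation (0.06 μM) at high ATP (2 mM final). Enzyme was GST-MKNK1 full length, T344D, pre-bound to compound for 15 min before a 30 min reaction at 22 °C, pH 7.5. Inhibition scaled between no-inhibitor (0%) and no-enzyme (100%) wells.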
# T1 sequence (Q9BUB5 1-424 isoform Q9BUB5-2 T344D): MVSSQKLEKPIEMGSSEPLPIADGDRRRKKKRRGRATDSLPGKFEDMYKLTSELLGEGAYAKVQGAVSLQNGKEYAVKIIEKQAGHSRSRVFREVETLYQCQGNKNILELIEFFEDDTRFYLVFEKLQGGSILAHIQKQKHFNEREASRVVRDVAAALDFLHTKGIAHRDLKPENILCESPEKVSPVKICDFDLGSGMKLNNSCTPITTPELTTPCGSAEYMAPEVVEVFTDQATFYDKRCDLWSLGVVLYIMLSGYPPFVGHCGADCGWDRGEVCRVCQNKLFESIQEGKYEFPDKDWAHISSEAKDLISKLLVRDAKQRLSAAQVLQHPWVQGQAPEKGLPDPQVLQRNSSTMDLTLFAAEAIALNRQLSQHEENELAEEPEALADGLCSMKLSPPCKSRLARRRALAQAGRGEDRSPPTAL
IC50 (MKNK1 [1]) [nM],IC50 (MKNK1 [2]) [nM],SMILES
5,12,"CC(=O)N1CCC[C@H]1CCOc1ccc2ncc(-c3cc4cnccc4o3)n2n1 [IV-1, 1-[(2S)-2-(2-{[3-(Furo[3,2-c]pyridin-2-yl)imidazo[1,2-b]pyridazin-6-yl]oxy}ethyl)pyrrolidin-1-yl]ethanone]"
11,26,"COc1nccc2oc(-c3cnc4ccc(OCCC5CCC(=O)N5)nn34)cc12 (centres unmarked) [IV-2, 5-(2-{[3-(4-Methoxyfuro[3,2-c]pyridin-2-yl)imidazo[1,2-b]pyridazin-6-yl]oxy}-ethyl)pyrrolidin-2-one]"
10,28,"COc1nccc2oc(-c3cnc4ccc(OC[C@@H]5CCC(=O)N5)nn34)cc12 [IV-3, (5S)-5-({[3-(4-Methoxyfuro[3,2-c]pyridin-2-yl)imidazo[1,2-b]pyridazin-6-yl]-oxy}methyl)pyrrolidin-2-one]"
2,4,"CC(C)Oc1nccc2oc(-c3cnc4ccc(OC[C@H]5CCC(=O)N5)nn34)cc12 [IV-4, (5R)-5-[({3-[4-(Propan-2-yloxy)furo[3,2-c]pyridin-2-yl]imidazo[1,2-b]pyridazin-6-yl}oxy)methyl]pyrrolidin-2-one]"
2,4,"CC(C)(C)COc1nccc2oc(-c3cnc4ccc(OC[C@H]5CCC(=O)N5)nn34)cc12 [IV-5, (5R)-5-[({3-[4-(2,2-Dimethylpropoxy)furo[3,2-c]pyridin-2-yl]imidazo[1,2-b]-pyridazin-6-yl}oxy)methyl]pyrrolidin-2-one]"
4,8,"COc1nccc2oc(-c3cnc4ccc(OC[C@H]5CCC(=O)N5)nn34)cc12 [IV-6, (5R)-5-({[3-(4-Methoxyfuro[3,2-c]pyridin-2-yl)imidazo[1,2-b]pyridazin-6-yl]-oxy}methyl)pyrrolidin-2-one]"
1,4,"CC(C)(C)C(=O)N1CCC[C@H]1CCOc1ccc2ncc(-c3cc4cnccc4o3)n2n1 [IV-7, 1-[(2S)-2-(2-{[3-(Furo[3,2-c]pyridin-2-yl)imidazo[1,2-b]pyridazin-6-yl]-oxy}ethyl)pyrrolidin-1-yl]-2,2-dimethylpropan-1-one]"
4,10,"COc1nccc2oc(-c3cnc4ccc(OC[C@H]5CN(C(=O)C6CC6)CCO5)nn34)cc12 [IV-8, Cyclopropyl[(2R)-2-({[3-(4-methoxyfuro[3,2-c]pyridin-2-yl)imidazo[1,2-b]-pyridazin-6-yl]oxy}methyl)morpholin-4-yl]methanone]"
3,9,"COc1nccc2oc(-c3cnc4ccc(OCC5CCCC(=O)N5)nn34)cc12 (centres unmarked) [IV-9, 6-({[3-(4-Methoxyfuro[3,2-c]pyridin-2-yl)imidazo[1,2-b]pyridazin-6-yl]oxy}-methyl)piperidin-2-one]"
7,17,"COc1nccc2oc(-c3cnc4ccc(OC[C@H]5CN(C(=O)C(F)(F)F)CCO5)nn34)cc12 [IV-10, 2,2,2-Trifluoro-1-[(2R)-2-({[3-(4-methoxyfuro[3,2-c]pyridin-2-yl)imidazo-[1,2-b]pyridazin-6-yl]oxy}methyl)morpholin-4-yl]ethanone]"
6,25,"COc1nccc2oc(-c3cnc4ccc(OC[C@H]5CN(C(=O)C(C)(C)C)CCO5)nn34)cc12 [IV-11, 1-[(2R)-2-({[3-(4-Methoxyfuro[3,2-c]pyridin-2-yl)imidazo[1,2-b]pyridazin-6-yl]oxy}-methyl)morpholin-4-yl]-2,2-dimethylpropan-1-one]"
22,43,"CC(C)Oc1nccc2oc(-c3cnc4ccc(OC[C@H]5CNCC(=O)N5)nn34)cc12 [IV-13, (6R)-6-[({3-[4-(Propan-2-yloxy)furo[3,2-c]pyridin-2-yl]imidazo[1,2-b]pyridazin-6-yl}oxy)methyl]piperazin-2-one]"
1,2,"CCNc1nccc2oc(-c3cnc4ccc(OC[C@H]5CCC(=O)N5)nn34)cc12 [IV-14, (5R)-5-[({3-[4-(Ethylamino)furo[3,2-c]pyridin-2-yl]imidazo[1,2-b]pyridazin-6-yl}oxy)methyl]pyrrolidin-2-one]"
